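Values below derive from 48-hour exposures of cells grown in 96-well plates, with endpoints linearly interpolated between the two concentrations bracketing the appropriate inhibition level. GI50 marks 50% less growth. Definition used: TGI = concentration required for complete inhibition of growth.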 *1 amine or outer side, *2 acyl side, *3 side chain or, on linkers, in order; H or OH if unused. Where a SMILES comes first, the peptide text is derived from it. Bridges are numbered along the chain shown (N, C = ends). [ ]: non-standard residue; d: D form. ξ: configuration not given here. X35 = CC[C@H](C)[C@@H](N[*:1])[C@@H](O)CC(=O)O[C@H](C(=O)[C@H](C)C(=O)[*:2])C(C)C; NMeY = CN[C@@H](Cc1ccc(O)cc1)C(=O)O; dNMeL = CN[C@H](CC(C)C)C(=O)O; ξΔPro = O=C(O)C1C=CCN1
How the values were obtained:
Test in all cases: inhibition of tumour cell growth, NCI panel, 48 h
[1] = system: KM12 colon
[2] = system: NCI-H226 lung
[3] = system: IGROV1 ovarian
[4] = system: MOLT-4 leukemia
[5] = system: BT-549 breast
[6] = system: CAKI-1 renal
[7] = system: NCI-H460 lung
[8] = system: HCT-15 colon
[9] = system: UACC-62 melanoma
[10] = system: COLO 205 colon

Row | SMILES | GI50 [1] | TGI [1] | GI50 [2] | TGI [2] | GI50 [3] | TGI [3] | GI50 [4] | TGI [4] | GI50 [5] | TGI [5] | GI50 [6] | TGI [6] | GI50 [7] | TGI [7] | GI50 [8] | TGI [8] | GI50 [9] | TGI [9] | GI50 [10] | TGI [10]
1 | Cc1cc2nc(-c3c(N)ncc(C#N)c3-c3ccc(Cl)cc3)[nH]c2cc1C | 14.8 µM | > 100 µM | 15 µM | 46.3 µM | 18.7 µM | > 100 µM | > 100 µM | > 100 µM | 37.6 µM | > 100 µM | 12.1 µM | > 100 µM | 30.4 µM | > 100 µM | 30.6 µM | > 100 µM | 11 µM | 53.2 µM | 6.24 µM | 83.4 µM
2 | O=[N+]([O-])c1ccc2c(c1)n1c(N3CCCC3)[n+]3ccccc3c1c1c3cccc[n+]3c(N3CCCC3)n21 |  | > 100 µM |  | > 100 µM |  | > 100 µM |  | > 100 µM |  | > 100 µM |  | > 100 µM |  | > 100 µM |  | > 100 µM |  | > 100 µM |  | > 100 µM
3 | Clc1nc2c(C#Cc3ccccc3)ncnc2n1C1CCCCO1 (stereo not given) |  | 35.1 µM |  | > 100 µM |  | 29.2 µM |  | 51.2 µM |  | 49.7 µM |  | 28.1 µM |  | 39.6 µM |  | 31 µM |  | 27 µM |  | 32.7 µM
4 | O=[N+]([O-])c1cc(F)ccc1Sc1ccccc1 |  | > 10 µM |  | > 10 µM |  | > 10 µM |  | > 10 µM |  | > 10 µM |  | > 10 µM |  | > 10 µM |  | > 10 µM |  | > 10 µM |  | > 10 µM
5 | CCN(CC)C1Oc2cc3c(cc2C(c2cc(OC)c(OC)c(OC)c2)C1C)OCO3 (stereo not given) |  | 30.7 µM |  | 4.54 µM |  | > 63.2 µM |  | 13.1 µM |  | > 58.4 µM |  | > 44.2 µM |  | 22.5 µM |  | 13.3 µM |  | 98.5 µM |  | 4.8 µM
6 | COC(=O)C1CC23C=CCN4CC(C2C)C2(c5ccccc5NC12)C43 (stereo not given) |  | > 100 µM |  | > 100 µM |  | > 100 µM |  | > 100 µM |  | > 100 µM |  | > 100 µM |  | > 100 µM |  | > 100 µM |  | > 100 µM |  | > 100 µM
7 | COC1(OC)C=CC(=O)C=C1 |  | 25.8 µM |  | 10.4 µM |  | 4.77 µM |  | > 95.2 µM |  | 14.2 µM |  | 11.6 µM |  | 19.7 µM |  | 16.9 µM |  | 4.08 µM |  | 28.1 µM
8 | Nc1ccc2c(c1)NC(=O)[C@@H]1CCCN1C2=O |  | > 100 µM |  | > 100 µM |  | > 100 µM |  | > 100 µM |  | > 100 µM |  | > 100 µM |  | > 100 µM |  | > 100 µM |  | > 100 µM |  | > 100 µM
9 | N#C/C(C(=O)Nc1ccccc1)=C(/N)N1CCCCC1 |  | > 100 µM |  | > 100 µM |  | > 100 µM |  | > 100 µM |  | > 100 µM |  | > 100 µM |  | > 100 µM |  | > 100 µM |  | > 100 µM |  | > 100 µM
10 | COC(=O)c1cc(C)ccc1/C=C1\Cc2c(C)cc(C)cc2C1=O |  | > 100 µM |  | > 82.7 µM |  | > 100 µM |  | > 100 µM |  | > 75.7 µM |  | > 89.1 µM |  | > 100 µM |  | > 100 µM |  | 65.1 µM |  | > 100 µM
11 | C=CC(OC(C)=O)c1ccc(OC(C)=O)cc1 (stereo not given) |  | 18.6 µM |  | 32.1 µM |  | 29.5 µM |  | > 44 µM |  | 23.9 µM |  | 10 µM |  | 37.1 µM |  | 23.5 µM |  | 28.1 µM |  | 12.9 µM
12 | CC(C)(CN1CCCCC1)C(/C=C/c1ccccc1)=N\NC(=O)N/N=C(/C=C/c1ccccc1)C(C)(C)CN1CCCCC1 |  | 3.86 µM |  | 5.27 µM |  | 6.07 µM |  | 4.02 µM |  | 3.23 µM |  | 5.61 µM |  | 2.67 µM |  | 2.72 µM |  | 2.89 µM |  | 2.81 µM
13 | Cc1nc(Nc2nc3ccccc3[nH]2)nc(Cl)c1CCCl |  | > 100 µM |  | > 100 µM |  | > 100 µM |  | > 100 µM |  | > 100 µM |  | > 100 µM |  | > 100 µM |  | > 100 µM |  | > 100 µM |  | > 100 µM
14 | CC(=O)O[C@H]1CCC2[C@@H]3CCC4NC(=O)C(C#N)C[C@]4(C)C3CC[C@@]21C (stereo not given in full) |  | > 10 µM |  | > 10 µM |  | > 10 µM |  | > 10 µM |  | > 10 µM |  | > 10 µM |  | > 10 µM |  | > 10 µM |  | > 10 µM |  | > 10 µM
15 | C=CCOC1(CC=C)C(=O)OC2C(O)COC21O (stereo not given) |  | > 100 µM |  | > 100 µM |  | > 100 µM |  | > 100 µM |  | > 100 µM |  | > 100 µM |  | > 100 µM |  | > 100 µM |  | > 100 µM |  | > 100 µM
16 | COC(=O)/C=c1/c2ccccc2n2c1c1ccccc1[n+]2C |  | 9.47 µM |  | 21 µM |  | 20.9 µM |  | > 100 µM |  | 14.7 µM |  | 70.9 µM |  | 12.5 µM |  | 33.1 µM |  | 27.5 µM |  | 2.51 µM
17 | C=CCc1ccccc1C1CC2(C(=O)OC)OC1C(C(=O)OC)=C2C(=O)OC (stereo not given) |  | > 10 µM |  | > 10 µM |  | > 10 µM |  | > 10 µM |  | > 10 µM |  | > 10 µM |  | > 10 µM |  | > 10 µM |  | > 10 µM |  | > 10 µM
18 | COc1cc2c(cc1OC)C(=O)/C(=C/c1ccc(O)cc1)CC2 |  | > 10 µM |  | > 10 µM |  | > 10 µM |  | > 10 µM |  | > 10 µM |  | > 10 µM |  | > 10 µM |  | > 10 µM |  | > 10 µM |  | > 10 µM
19 | O=c1[nH]c2cc([N+](=O)[O-])c(Nc3c4ccccc4nc4ccccc34)c([N+](=O)[O-])c2[nH]1 |  | 10.9 µM |  | 15 µM |  | 3.04 µM |  | 5.02 µM |  | 23 µM |  | 7.96 µM |  | 7.75 µM |  | 14.4 µM |  | 4.53 µM |  | 6.97 µM
20 | CCN1CCCn2c(=O)[nH]c3cc(Br)cc1c32 |  | > 100 µM |  | > 100 µM |  | > 100 µM |  | > 100 µM |  | > 100 µM |  | > 100 µM |  | > 100 µM |  | > 100 µM |  | > 100 µM |  | > 100 µM
21 | COc1ccc2c(c1)C(=O)C1CCC(=O)N1C2c1ccc2c(c1)OCO2 (stereo not given) |  | 22.2 µM |  | 30.3 µM |  | 32.5 µM |  | 11.2 µM |  | 11.6 µM |  | 71.8 µM |  | 64.4 µM |  | 29.6 µM |  | 29.9 µM |  | 25.7 µM
22 | Cc1cn(CCOCCOC(=O)NC(CCCNC(N)=O)C(=O)O)c(=O)[nH]c1=O (stereo not given) |  | > 100 µM |  | > 100 µM |  | > 100 µM |  | > 100 µM |  | > 100 µM |  | > 100 µM |  | > 100 µM |  | > 100 µM |  | > 100 µM |  | > 100 µM
23 | O=C(NCCCCCCO)c1cccc2cc3ccccc3nc12 |  | 33.9 µM |  | 35.3 µM |  | 35.7 µM |  | 58.5 µM |  | 33.2 µM |  | 36.1 µM |  | 39 µM |  | 48.6 µM |  | 35.2 µM |  | 25.3 µM
24 | COc1cc(C)cc2c(-c3c(O)cc(O)c4c3C[C@H](C)N[C@H]4C)cc(-c3cc(-c4c(O)cc(O)c5c4C[C@H](C)N[C@H]5C)c4cc(C)cc(OC)c4c3O)c(O)c12 |  | > 100 µM |  | > 100 µM |  | > 100 µM |  | > 100 µM |  | > 100 µM |  | > 100 µM |  | > 100 µM |  | > 100 µM |  | > 100 µM |  | > 100 µM
25 | N#Cc1c(N2CCN(c3ccc([N+](=O)[O-])cc3)CC2)[n+](=O)c2ccc(-c3ccc([N+](=O)[O-])cc3)cc2n1[O-] |  | > 100 µM |  | > 100 µM |  | > 77.8 µM |  | > 100 µM |  | > 100 µM |  | > 100 µM |  | > 38.3 µM |  | > 100 µM |  | > 100 µM |  | > 100 µM
26 | CNC(=O)N(CCC#N)CCCN(C(=O)N(C)C)c1ccccc1 |  | > 100 µM |  | > 100 µM |  | > 100 µM |  | > 100 µM |  | > 100 µM |  | > 100 µM |  | > 100 µM |  | > 100 µM |  | > 100 µM |  | > 100 µM
27 | O=NN1CCCS1(=O)=O |  | > 100 µM |  | > 100 µM |  | > 100 µM |  | > 100 µM |  | > 100 µM |  | > 100 µM |  | > 100 µM |  | > 100 µM |  | > 100 µM |  | > 100 µM
28 | COc1cc2c(c(OC)c1)C(=O)O[C@H](C)CCCC/C=C/C2 |  | > 35.2 µM |  | > 95.8 µM |  | > 31.1 µM |  | > 31.9 µM |  | > 35.1 µM |  | 26.4 µM |  | > 32.6 µM |  | > 66.9 µM |  | > 58 µM |  | 31.8 µM
29 | COc1cc2oc(-c3ccc4c(c3)OCO4)c(OC)c(=O)c2c(O)c1OC |  | > 50 µM |  | > 50 µM |  | > 50 µM |  | > 50 µM |  | > 50 µM |  | > 50 µM |  | > 50 µM |  | > 50 µM |  | > 50 µM |  | > 50 µM
30 | CC[C@H](C)[C@H]1NC(=O)[C@@H](NC(=O)[C@@H](CC(C)C)N(C)C(=O)C2C=CCN2)[C@@H](C)OC(=O)[C@H](Cc2ccc(OC)cc2)N(C)C(=O)[C@@H]2CCCN2C(=O)[C@H](CC(C)C)NC(=O)[C@@H](C)C(=O)[C@H](C(C)C)OC(=O)C[C@@H]1O (stereo not given in full) (H-[ξΔPro][dNMeL]T[X35]LP[NMeY](Me); ester 3-C) |  | 0.447 µM |  | < 0.005 µM |  | 0.115 µM |  | > 50 µM |  | 0.345 µM |  | 0.378 µM |  | 0.114 µM |  | 1.78 µM |  | 0.00602 µM |  | 9.32 µM
